Series [1] is described as follows: Peptide stability in human serum by MALDI-TOF mass spectrometry. In kind it is in vitro ADME. Conditions: for stability (integrity) compared to control Mut3DPT: 37° C., human serum/plasma, 0 to 24 h. How it is done:
A) Mut3DPT, Mut4DPT, Mut5DPT, Mut6DPT and Mut7DPT peptides were incubated at 37° C. in human serum for different periods of time and their integrity (percentage of intact peptide) were analyzed by mass spectrometry. Similar results were obtained in two independent experiments.
FIG. 5. Mut3DPT, Tat, Penetratin and R8 were treated and analyzed as above. The stability is referred to the intensity of the peaks.
Mut3DPT, as well as Mut4DPT, Mut5DPT, Mut6DPT and Mut7DPT were incubated at 37° C. in 250 μl human serum for different periods of time. Samples were collected and peptide degradation stopped by freezing. Peptides were extracted from collected samples using the ProteoMiner Protein Enrichment System (Bio-Rad). Peptide integrity (percentage of intact peptide) was analyzed by mass spectrometry using a MALDI-TOF (Brücker Autoflex II) following their standard protocols. Every measurement was performed by triplicate. MS data were analyzed using appropriate software (Clinprot tools, Flex analysis, Brücker).
The inventors have analyzed whether these new generated peptides have enhanced stability in plasma, compared to the control Mut3DPT. The peptides were incubated for different periods of time (from 0 to 24 h) at 37° C. with human plasma and their stability was analyzed by mass spectrometry (MS). […] The synthetic peptides Mut5DPT, Mut6DPT and Mut7DPT are also very stable to proteases degradation, compared to the control peptide Mut3DPT. Taken together, we can conclude that there is no modification of the stability upon 24 h of incubation with human serum.

The subject of series [2] is MDA-MB231 cells. Nature of the series: Intracellular localization of FITC-labelled peptides by fluorescence microscopy. In kind it is cell-based, human. As to conditions: 30 μM, 4 h. How it is done:
MDA-MB231 cells (3×10^4 cells/ml) were grown on cover slips and incubated 4 h with 30 μM of FITC-labelled peptides. Cells were washed 3 times with PBS, fixed with 4% paraformaldeyde (PFA) and analyzed by fluorescence microscopy. Cells treated with mut7DPT-FITC were used as control.
MDA-MB231 cells (3×10^4 cells/ml) were grown on cover slips and incubated with 30 μM of peptide for different periods of time. Cells were washed 3 times with PBS, fixed with 4% PFA and analyzed by fluorescence microscopy.
MDA-MB231 cells (3×10^4 cells/ml) were incubated in cover slips for 3 h with 15 μM of the FITC-labelled peptides associated to a cargo (TEAD or YAP peptides). Cells were washed 3 times with PBS, fixed with 4% PFA and analyzed by fluorescence microscopy.
For intracellular localization of FITC-labelled peptides, MDA-MB231 was seeded in an 8-well Labtek (Thermo Fischer) at a density of 3×10^4 cells/well. Cells were treated with different concentrations of FITC-labelled peptides for different times. Cells were fixed or not with 4% of formaldehyde for 15 min at room temperature. Samples were washed twice with PBS and mounted in mounting solution containing DAPI. Images were captured with a fluorescence microscopy (Olympus Japan) using 63× magnification objective.

In a further series the test system is MCF-7, PBMC. Nature of the series: Internalization of shuttles by fluorescence microscopy, mass spectrometry and flow cytometry. It is filed as cell-based, human. As to conditions: MCF-7 25 μM (microscopy), 100 μM (MS); B cells of PBMC 100 μM 4 h. How it is done: A) MCF-7 cells were grown on coverslips and incubated 1 h at 37° C. with 25 μM of FITC-labelled peptides. Cells were washed 3 times with PBS, fixed with 4% paraphormaldeyde (PFA) and analyzed by fluorescence microscopy. Quantification of the microscopy images is shown. B) MCF7 were grown as above and incubated for different periods of time at 37° C. with 25 μM of FITC-labelled shuttles. Cells were treated as above and analyzed by fluorescence microscopy.
MCF-7 cells were cultured 4 h with 100 μM of each shuttle. After several washing steps, they were lysed and the extracts centrifuged. The intracellular peptide was detected by MS. Pure peptide was used as a control of molecular weight.
A) B cells were isolated (anti-hCD19-APC antibody) from peripheral blood mononuclear cells (PBMC) of healthy donors (HD) or B) chronic lymphocytic leukemia (CLL) patients. Cells were incubated 4 h with 100 μM of the FITC-labelled shuttles. The mean fluorescence intensity was detected by flow cytometry. Non treated cells were used as control.
Peripheral blood mononuclear cells from healthy (HD) donors or chronic lymphocytic leukaemia patients (CLL) were treated with FITC-labelled peptides and them, cells were harvested and washed twice with PBS to remove the extracellular unbound peptide. FITC fluorescence intensity of internalized peptide was measured by flow cytometry (BD Biosciences) by acquiring 10,000 live cells. B cells were selected with anti hCD19-APC labelled antibody. Experiments were carried out three times in duplicate. Untreated cells were used as control.
For intracellular localization of FITC-labelled peptides, MDA-MB231 or MCF7 cells were seeded in an 8-well Labtek (Thermo Fischer) at a density of 2×10^4 cells/well. Cells were treated with different concentrations of FITC-labelled peptides for different times. Cells were fixed with 4% of formaldehyde for 15 min at room temperature. Samples were washed twice with PBS and mounted in mounting solution containing DAPI. Images were captured with a fluorescence microscopy (Olympus Japan) using 63× magnification objective.
To detect the internalization of the peptides, breast cancer cell line MCF-7 cells were seeded in a 6-well plate at a density of 1×10^6 cells/well in DMEM medium supplemented with 10% FCS. Cells were treated with 100 μM of each shuttle for 4 h at 37° C., then cells were washed once with PBS. Cell pellet was collected by detaching with Trypsin EDTA following several washing step with PBS. Cells were resuspended in lysis buffer (Tris-HCl 50 mM, NaCl 20 mM, pH 8.0, supplemented with protease inhibitors) and lysed with Glass/Teflon potter (Elvehjem homogenizers), then centrifuged for 20 min at 16,000 g at 4° C. The peptides in the supernatant were concentrated with Ziptips (Millpore, ZTC18S096) according to the manufacture's protocol. The internalization of peptide was detected by mass spectrometry (MS) using a MALDI-TOF (Brucker Autoflx II). MS data were analyzed using appropriate software (Clinprot tools, Flex analysis, Brucker).
The inventors incubated the cells (MCF-7, PBMC) with the peptides at different concentrations (respectively 25 μM, and 100 μM) and analyzed the presence of the shuttles into the cells by fluorescence microscopy, mass spectrometry (MS) and flow cytometry.
For orientation: In flow cytometry, cells or beads pass a laser one at a time.

For a further series, the system named is MCF-7 cells. Nature of the series: Intracellular detection of FITC-labelled peptides by FACS. In kind it is cell-based, human. Conditions: MCF-7 (similar in Jurkat); for kinetic of internalization compared to control peptide Mut3DPT: 50 μM, different periods of time. The method, then:
MCF-7 or Jurkat cell lines were cultured in the presence or in the absence of Mut3DPT (Panel A), Mut4DPT (Panel B), Mut5DPT (Panel C), Mut6DPT (Panel D) or Mut7DPT (Panel E) at 50 μM for different periods of time. The intensity of the FITC fluorescence due to the shuttle internalization was measured by FACS. The results presented in the figure correspond to MCF-7 cells. Similar results were obtained using Jurkat cell line.
MCF-7 or Jurkat cell lines were cultured in the presence or in the absence of Mut3DPT (Panel A), Mut4DPT (Panel B), Mut5DPT (Panel C), Mut6DPT (Panel D) or Mut7DPT (Panel E) at different concentrations for 4 h. The intensity of the FITC fluorescence due to the shuttle internalization was measured by FACS. The results presented in the figure correspond to MCF-7 cells. Similar results were obtained using Jurkat cell line.
Jurkat and MCF-7 cells were incubated with different concentrations of FITC-labeled peptides, then washed and analyzed by FACS in order to detect the intensity of fluorescence into the cells. Similarly, Jurkat and MCF-7 cells were incubated with a given peptide concentration at different times and after washing, cells were analyzed by FACS to estimate the intensity of fluorescence into the cells.
The inventors incubated the cells (Jurkat and MCF-7) with the peptides at different concentrations and different times and analyzed the intensity of the fluorescence into the cells by FACS. The result of kinetic of time incubation is shown on FIG. 1 and the kinetic of peptide concentration is shown on FIG. 2.

The test system of another series is MDA-MB231 cell line. Nature of the series: Toxicity of CPP-NLS peptides by FACS. Conditions: 25 and 50 μM, 4 h of incubation.
Series [3] deals with MDA-MB231 cells. Nature of the series: Apoptosis by Annexin V-FITC staining, shuttles associated to TEAD cargo. It is filed as cell-based, human. As to conditions: 10 and 25 μM, 4 h or 24 h. How it is done: MDA-MB231 cells (5×10^4 cells/ml) were cultured in the presence of different concentrations of shuttles or nuclear localization shuttles associated to the cargo TEAD for 4h or 24h (Non-treated, Panel A; Mut3DPT-TEAD, Panel B; NLS18, Panel C; NLS23, Panel D; NLS18 TEAD, Panel E, NLS23 TEAD, Panel F). Apoptosis was estimated by Annexin V-FITC staining. Cells treated with shuttle without cargo or nuclear localisation signal (NLS) were used as control. Standard deviation is shown.
The apoptosis induction of the different shuttles associated to a cargo (TEAD and YAP binding sites) was analyzed by annexinV-FITC staining (e Biosciences). Human breast cancer cell line MDA-MB231 was treated with different concentrations of peptide for 4 h and 24 h. After the treatment, cells were harvested, washed and treated according to the manufacturer protocol. The level of apoptosis was measured by flow cytometry (BD Biosciences, FACS Canto.
We further analyzed whether the weak apoptotic effect of the mut3DPT-TEAD peptide was increased in the new generated tri-functional peptides. Cells were cultured for 4 h or 24 h with 10 and 25 μM of NLS-18 or NLS-23 and apoptosis estimated by Annexin staining (FIG. 16). The association of TEAD interfering peptide to the NLS18 or NLS23 peptides strongly increases the apoptotic effect, compared to the control peptide.

Description for MDA-MB231 cell line: MDA-MB231 cells (6×10^4 cells/ml) were incubated 4 h with two different concentrations of peptide. Toxicity was analyzed by flow cytometry. […] Non treated cells were used as a control.
The peptides were added to MDA-MB231 cell line at 25 and 50 μM and the toxicity was analyzed by FACS upon 4 h of incubation.

On to `N=C(N)NCCC[C@H](NC(=O)[C@H](CCCNC(=N)N)NC(=O)[C@H](CCCNC(=N)N)NC(=O)[C@H](CCCNC(=N)N)NC(=O)[C@H](CCCNC(=N)N)NC(=O)[C@H](CCCNC(=N)N)NC(=O)[C@H](CCCNC(=N)N)NC(=O)[C@@H](N)CCCNC(=N)N)C(=O)O` [Peptide R8, reference compound], for which the “degradation compared to control Mut3DPT” value in series [1] (6 h incubation with human serum at 37° C.) is reported as “stronger degradation”. Besides, in series [1] (24 h incubation with human serum), the degradation result is “extensively degraded”.

Take KKKKKWKKWKKK (Shuttle peptide Mut7DPT): in the series on MDA-MB231 cells [2], the nuclear staining result is on record as “does not show nuclear staining”. In the series with MCF-7, PBMC, the “internalization compared to the control peptide Mut3DPT” value is reported as “better internalization” and the “internalization, ranking among the new peptides” value is “a better internalization”. In addition, the “time to plateau of internalization” value with MCF-7 cells (50 μM FITC-labelled peptide) was 30 min. Besides, in series [1], the “stability (integrity) compared to control Mut3DPT” value was “very stable”. In addition, the toxicity result in the series with MDA-MB231 cell line was “none of the peptides show toxicity”.

For the compound KKWKKWKKWKK (Shuttle peptide Mut5DPT), in the series with MCF-7, PBMC, the “internalization compared to the control peptide Mut3DPT” value is listed as “better internalization”. Besides, in the series with MCF-7 cells, the “kinetic of internalization compared to control peptide Mut3DPT” value is listed as “better internalization”. Further, the “stability (integrity) compared to control Mut3DPT” value in series [1] was “very stable”.

Take RRWRRWRRWRR (Shuttle peptide Mut6DPT): in the series with MCF-7, PBMC, the “internalization compared to the control peptide Mut3DPT” value is listed as “better internalization” and the “internalization, ranking among the new peptides” value is “a better internalization”. The “share of the total fluorescence achieved one minute after incubation” value in the series on MCF-7 cells (50 μM FITC-labelled peptide, 1 min) was “Around 50%”. Also, the “time to plateau of internalization” value with MCF-7 cells (50 μM FITC-labelled peptide) is reported as 15 min. Besides, the “kinetic of internalization compared to control peptide Mut3DPT” value in the series on MCF-7 cells was “rapidly internalized”. In addition, the “stability (integrity) compared to control Mut3DPT” value in series [1] is given as “very stable”.

Turning to “VKKKKIKAEIKI-RLQLVEFSAFVEPPDAVD (VKKKKIKAEIKIRLQLVEFSAFVEPPDAVD; Mut3DPT-TEAD)”, in the series on MDA-MB231 cells [3], the apoptotic effect entry is “weak”.

With VKKWKIKWWIKI (shuttle peptide Mut4DPT), the “internalization compared to the control peptide Mut3DPT” value with MCF-7, PBMC is recorded as “better internalization”. In addition, the “kinetic of internalization compared to control peptide Mut3DPT” value with MCF-7 cells is listed as “better internalization”. Besides, the “stability (integrity) compared to control Mut3DPT” value in series [1] was “as stable as the parental peptide”.

(Values after patent US10947276B2, “Cell penetrating peptides with improved internalization properties” (SORBONNE UNIVERSITE, priority 2016, dated 2021).)
